Results on three compounds are retold here after patent publication US10968192B2, “Crystalline solid forms of N-(1-((2-(dimethylamino)ethyl)amino)-2-methyl-1-oxopropan-2-yl)-4-(4-(2-methyl-5-((2S,3R,4R,5S,6R)-3,4,5-trihydroxy-6-(methylthio)tetrahydro-2H-pyran-2-yl)benzyl)phenyl)butanamide and methods of their synthesis” (Lexicon Pharmaceuticals, Inc., priority 2018, dated 2021).

In data set [1] the target is T1, sodium glucose co-transporter type 1 (SGLT1) (Homo sapiens, UniProt P13866).
T1 sequence (P13866 1-664): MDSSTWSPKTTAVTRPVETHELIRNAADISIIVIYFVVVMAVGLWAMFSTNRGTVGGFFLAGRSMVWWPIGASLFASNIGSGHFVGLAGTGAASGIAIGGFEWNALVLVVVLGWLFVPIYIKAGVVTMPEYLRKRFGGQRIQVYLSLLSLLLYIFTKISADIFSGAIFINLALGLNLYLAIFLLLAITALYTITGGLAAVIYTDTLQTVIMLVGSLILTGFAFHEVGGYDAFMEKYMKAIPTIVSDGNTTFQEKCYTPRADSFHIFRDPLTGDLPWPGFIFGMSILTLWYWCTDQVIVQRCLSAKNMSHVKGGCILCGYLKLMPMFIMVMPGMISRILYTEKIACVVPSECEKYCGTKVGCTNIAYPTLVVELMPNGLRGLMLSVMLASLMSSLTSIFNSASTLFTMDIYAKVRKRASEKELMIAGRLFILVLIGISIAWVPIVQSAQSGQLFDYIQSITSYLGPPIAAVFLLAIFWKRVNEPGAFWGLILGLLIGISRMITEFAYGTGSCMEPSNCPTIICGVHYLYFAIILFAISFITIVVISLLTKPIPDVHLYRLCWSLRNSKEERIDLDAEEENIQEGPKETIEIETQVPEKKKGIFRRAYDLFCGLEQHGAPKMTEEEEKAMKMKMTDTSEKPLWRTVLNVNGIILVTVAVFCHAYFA
To be noted: qualitative statement; see U.S. Pat. No. 9,200,025, Examples 6.39, 6.40; cited from earlier work.

The nature of data set [2]: Polymorphism studies of the L-proline co-crystal: solid-form stability upon drying. The format is physicochemical. The text has this:
Significant further research directed at discovering useful and stable solid forms of the compound finally led to the discovery of a few crystalline forms of the free base, solvates, and co-crystals. […] Although polymorphism studies led to the identification of eleven different Raman spectroscopic classes of the co-crystal, three were dominated by amorphous material and most were unstable (i.e., lose their crystallinity or convert to other forms) upon drying. […] The suspension was filtered and the wet-cake was dried. […] (DSC peak 147° C.). The solid was used as seeds to prepare 0.7 g more Form II polymorph of the L-proline cocrystal in a similar fashion.

For `CS[C@H]1O[C@@H](c2ccc(C)c(Cc3ccc(CCCC(=O)NC(C)(C)C(=O)NCCN(C)C)cc3)c2)[C@H](O)[C@@H](O)[C@@H]1O` [Compound I, N-(1-((2-(dimethylamino)ethyl)-amino)-2-methyl-1-oxopropan-2-yl)-4-(4-(2-methyl-5-((2S,3R,4R,5S,6R)-3,4,5-trihydroxy-6-(methylthio)tetrahydro-2H-pyran-2-yl)benzyl)phenyl)butanamide], the “inhibition of sodium glucose co-transporter type 1 (SGLT1)” value in data set [1] is given as “potent inhibitor”. With `CS[C@H]1O[C@@H](c2ccc(C)c(Cc3ccc(CCCC(=O)NC(C)(C)C(=O)NCCN(C)C)cc3)c2)[C@H](O)[C@@H](O)[C@@H]1O` [Form I, N-(1-((2-(dimethylamino)ethyl)-amino)-2-methyl-1-oxopropan-2-yl)-4-(4-(2-methyl-5-((2S,3R,4R,5S,6R)-3,4,5-trihydroxy-6-(methylthio)tetrahydro-2H-pyran-2-yl)benzyl)phenyl)butanamide L-proline], in data set [2] (wet cake from ethanol, dried at 50° C.), the “solid-form conversion upon drying” value is “converted to Form II upon drying”. Regarding `CS[C@H]1O[C@@H](c2ccc(C)c(Cc3ccc(CCCC(=O)NC(C)(C)C(=O)NCCN(C)C)cc3)c2)[C@H](O)[C@@H](O)[C@@H]1O` [Form II, N-(1-((2-(dimethylamino)ethyl)-amino)-2-methyl-1-oxopropan-2-yl)-4-(4-(2-methyl-5-((2S,3R,4R,5S,6R)-3,4,5-trihydroxy-6-(methylthio)tetrahydro-2H-pyran-2-yl)benzyl)phenyl)butanamide L-proline], the “solid-form stability (retains crystallinity / does not convert to other forms upon drying)” value in data set [2] (L-proline co-crystal forms, polymorphism studies) is “stable enough to be useful in pharmaceutical formulations”.
